In data set [1] the test system is BMDM. The data set is described as follows: Inhibition of M-CSF-induced Akt activation in BMM (unknown origin) at 5 uM pretreated for 1 hr followed by M-CSF stimulation for 5 to 30 mins by Western blot analysis. In kind it is tissue-based. (In general: In western blotting, separated proteins are transferred to a membrane and probed.)
Data set [2] has as its target T1, NF-kappa-B inhibitor alpha (Homo sapiens) (UniProt P25963).
T1 sequence (whole entry): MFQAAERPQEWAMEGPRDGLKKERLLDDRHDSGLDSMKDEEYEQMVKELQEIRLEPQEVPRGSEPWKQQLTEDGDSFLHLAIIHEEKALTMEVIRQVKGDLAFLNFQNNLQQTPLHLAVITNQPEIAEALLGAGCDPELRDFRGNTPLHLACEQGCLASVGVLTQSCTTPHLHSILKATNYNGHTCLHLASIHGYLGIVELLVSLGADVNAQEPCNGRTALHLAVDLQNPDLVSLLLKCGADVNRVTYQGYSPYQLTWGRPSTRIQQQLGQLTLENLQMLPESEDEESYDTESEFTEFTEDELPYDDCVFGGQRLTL
The data set is described as follows: Inhibition of RANKL-induced IkappaB-alpha activation in BMM (unknown origin) at 5 uM pretreated for 1 hr followed by RANKL stimulation for 5 to 15 mins by Western blot analysis. It counts as tissue-based.

The subject of data set [3] is BMDM. The data set is described as follows: Inhibition of p38 MAPK in BMM (unknown origin) assessed as suppression of RANKL/M-CSF-induced Acp5 gene upregulation at 5 uM measured after 3 days by RT-PCR analysis. It counts as tissue-based. The following applies: time 3.0 day.
Data set [4] has as its system BMDM. The data set is described as follows: Inhibition of p38 MAPK in BMM (unknown origin) assessed as suppression of RANKL/M-CSF-induced CTSK gene upregulation at 5 uM measured after 3 days by RT-PCR analysis. In kind it is tissue-based. The following applies: time 3.0 day.
Data set [5] has as its system BMDM. In words: Inhibition of p38 MAPK in BMM (unknown origin) assessed as suppression of RANKL/M-CSF-induced DCSTAMP gene upregulation at 5 uM measured after 3 days by RT-PCR analysis. In kind it is tissue-based. The following applies: time 3.0 day.
In data set [6] the test system is BMDM. The data set is described as follows: Inhibition of p38 MAPK in BMM (unknown origin) assessed as inhibition of M-CSF/RANKL-induced osteoclastogenesis by measuring reduction in multinucleated TRAP+ cells at 5 uM measured after 4 days by TRAP-staining based analysis relative to control. In kind it is cell-based. The following applies: time 4.0 day.
In data set [7] the test system is BMDM. In words: Inhibition of p38 MAPK in BMM (unknown origin) assessed as suppression of RANKL/M-CSF-induced actin ring formation at 5 uM incubated for 4 days by rhodamine phallodin/DAPI staining based analysis. The conditions noted are these: time 4.0 day.
For data set [8], the system named is BMDM. In words: Inhibition of p38 MAPK in BMM (unknown origin) assessed as inhibition of RANKL/M-CSF-induced osteoclast differentiation by measuring reduction in TRAP-positive multinucleated cells at 5 uM treated on day 0-4 by TRAP staining based assay. The following applies: time 4.0 day.
The subject of data set [9] is BMDM. The data set is described as follows: Inhibition of M-CSF-induced ERK activation in BMM (unknown origin) at 5 uM pretreated for 1 hr followed by M-CSF stimulation for 5 to 30 mins by Western blot analysis. It counts as tissue-based.
Data set [10] concerns BMDM. In words: Inhibition of RANKL-induced p38 activation in BMM (unknown origin) at 5 uM pretreated for 1 hr followed by RANKL stimulation for 5 to 15 mins by Western blot analysis. In kind it is tissue-based.
Data set [11] deals with BMDM. The data set is described as follows: Inhibition of p38 MAPK in BMM (unknown origin) assessed as inhibition of RANKL/M-CSF-induced osteoclast differentiation by measuring reduction in TRAP-positive multinucleated cells at 5 uM treated on day 0-2 by TRAP staining based assay relative to control. In kind it is tissue-based. The conditions noted are these: time 2.0 day.

Data set [12] concerns BMDM. The data set is described as follows: Inhibition of p38 MAPK in BMM (unknown origin) assessed as suppression of RANKL/M-CSF-induced Nftac1 gene upregulation at 5 uM measured after 3 days by RT-PCR analysis. In kind it is tissue-based. The conditions noted are these: time 3.0 day.
In data set [13] the test system is BMDM. The data set is described as follows: Inhibition of RANKL-induced JNK activation in BMM (unknown origin) at 5 uM pretreated for 1 hr followed by RANKL stimulation for 5 to 15 mins by Western blot analysis. In kind it is tissue-based.
Data set [14] relates to BMDM. In words: Inhibition of p38 MAPK in BMM (unknown origin) assessed as suppression of RANKL/M-CSF-induced Nftac1 upregulation at 5 uM measured after 3 days by Western blot analysis. In kind it is tissue-based. The following applies: time 3.0 day.
The subject of data set [15] is BMDM. The data set is described as follows: Inhibition of p38 MAPK in BMM (unknown origin) assessed as inhibition of M-CSF/RANKL-induced osteoclastogenesis by measuring reduction in multinucleated TRAP+ cells measured after 4 days by TRAP-staining based analysis. The following applies: dose microM 1-5, time 4.0 day. In kind it is cell-based.
The nature of data set [16]: Cytotoxicity against BMM (unknown origin) assessed as reduction in cell viability at 5 uM after 3 days in presence of M-CSF by MTT assay. In kind it is tissue-based. The following applies: bmdm, 72 h, time 3 day. (In general: Tetrazolium dyes change colour on reduction, which living cells bring about.)
In data set [17] the test system is BMDM. In words: Inhibition of p38 MAPK in BMM (unknown origin) assessed as inhibition of RANKL/M-CSF-induced osteoclast differentiation by measuring reduction in TRAP-positive multinucleated cells at 5 uM treated on day 2-4 by TRAP staining based assay relative to control. The conditions noted are these: time 3.0 day.
For data set [18], the system named is BMDM. In words: Inhibition of RANKL-induced Akt activation in BMM (unknown origin) at 5 uM pretreated for 1 hr followed by RANKL stimulation for 5 to 15 mins by Western blot analysis. In kind it is tissue-based.
Data set [19] has as its system BMDM. The data set is described as follows: Inhibition of p38 MAPK in BMM (unknown origin) assessed as suppression of RANKL/M-CSF-induced CTSK upregulation at 5 uM measured after 3 days by Western blot analysis. In kind it is tissue-based. The conditions noted are these: time 3.0 day.
Data set [20] relates to BMDM. The data set is described as follows: Inhibition of p38 MAPK in BMM (unknown origin) assessed as suppression of RANKL/M-CSF-induced MMP9 gene upregulation at 5 uM measured after 3 days by RT-PCR analysis. In kind it is tissue-based. The following applies: time 3.0 day.
Data set [21] relates to BMDM. The data set is described as follows: Inhibition of RANKL-induced ERK activation in BMM (unknown origin) at 5 uM pretreated for 1 hr followed by RANKL stimulation for 5 to 15 mins by Western blot analysis. In kind it is tissue-based.
The test system of data set [22] is BMDM. The data set is described as follows: Modulation of NF-kappaB in Sprague-Dawley rat BMM assessed as inhibition of M-CSF/RANKL-induced osteoclast differentiation by measuring decrease in TRAP-positive multinucleated cells at 100 uM measured after 5 days by TRAP-staining based assay relative to control. The following applies: filed as modulator, time 5.0 day. It counts as tissue-based.

Molecules are shown by their SMILES. The source made the active and inactive calls. No cut-off for these calls is given here.

By inhibition is commonly meant the percentage by which the read-out fell short of the control.

As for `O=C(O[C@@H]1Cc2c(cc(O)c(Cc3c(O)cc(O)c4c3O[C@H](c3cc(O)c(O)c(O)c3)[C@H](OC(=O)c3cc(O)c(O)c(O)c3)C4)c2O)O[C@@H]1c1cc(O)c(O)c(O)c1)c1cc(O)c(O)c(O)c1`, the inhibition result (in the data set on BMDM [1]; in [2]; with BMDM [9]; in the data set on BMDM [13]; in the data set on BMDM [18]; in the data set with BMDM [21]) was “inactive” each time. Also, the inhibition result with BMDM [3], in the data set with BMDM [4], in the data set on BMDM [5], with BMDM [7], in the data set on BMDM [8] and with BMDM [10] was “Active” in each case. Moreover, the inhibition result with BMDM [12], with BMDM [14], with BMDM [19] and with BMDM [20] was “Active” each time. The inhibition is 98.1% with BMDM [6], 95.9% in the data set with BMDM [11], “Dose-dependent effect” with BMDM [15] and 34.5% in the data set with BMDM [17]. The Activity result in data set [16] is recorded as “Non-Toxic”.

With `O=C(O[C@@H]1Cc2c(O)cc(O)cc2O[C@@H]1c1cc(O)c(O)c(O)c1)c1cc(O)c(O)c(O)c1`, the inhibition in the data set on BMDM [22] is 92%.

The record behind these values is ChEMBL document CHEMBL4665718, “Inhibitory effect of oolonghomobisflavan B on osteoclastogenesis by suppressing p38 MAPK activation” (Bioorg Med Chem Lett, 2020).
